Laboratory results: the NIST ThermoML archive (doi:10.1021/je9002515)
Numbers after ± are expanded uncertainties.

Key:
[1] = 101 kPa, Liquid, Alternating current cell with electrodes
[2] = xn = mol fraction of the nth substance listed; conditions: 101 kPa, Liquid, Alternating current cell with electrodes, x2 = 0

| Structure (SMILES) | electrical conductivity ([1]; 303.15 K) [S/m] | electrical conductivity ([1]; 313.15 K) [S/m] | electrical conductivity ([1]; 323.15 K) [S/m] | electrical conductivity ([1]; 333.15 K) [S/m] | electrical conductivity ([1]; 343.15 K) [S/m] | electrical conductivity ([1]; 353.15 K) [S/m] | electrical conductivity ([1]; 363.15 K) [S/m] | electrical conductivity ([1]; 373.15 K) [S/m] | electrical conductivity ([1]; 383.15 K) [S/m] | electrical conductivity ([1]; 393.15 K) [S/m] | electrical conductivity ([2]; 303.15 K) [S/m] | electrical conductivity ([2]; 313.15 K) [S/m] | electrical conductivity ([2]; 323.15 K) [S/m] | electrical conductivity ([2]; 333.15 K) [S/m] | electrical conductivity ([2]; 343.15 K) [S/m] | electrical conductivity ([2]; 353.15 K) [S/m] | electrical conductivity ([2]; 363.15 K) [S/m] | electrical conductivity ([2]; 373.15 K) [S/m] | electrical conductivity ([2]; 383.15 K) [S/m] | electrical conductivity ([2]; 393.15 K) [S/m] |
| --- | --- | --- | --- | --- | --- | --- | --- | --- | --- | --- | --- | --- | --- | --- | --- | --- | --- | --- | --- | --- |
| CC(=O)N(C)C [N,N-dimethylethanamide] | 0.0149 ± 0.0024 | 0.0195 ± 0.0031 | 0.024 ± 0.0038 | 0.0307 ± 0.0049 | 0.04 ± 0.0064 | 0.0462 ± 0.0074 | 0.0508 ± 0.0081 | 0.0534 ± 0.0086 | 0.0544 ± 0.0087 | 0.0518 ± 0.0083 |  |  |  |  |  |  |  |  |  |  |
| CC(=O)N(C)C [N,N-dimethylethanamide] + CNC(C)=O |  |  |  |  |  |  |  |  |  |  | 0.0149 ± 0.0024 | 0.0195 ± 0.0031 | 0.024 ± 0.0038 | 0.0307 ± 0.0049 | 0.04 ± 0.0064 | 0.0462 ± 0.0074 | 0.0508 ± 0.0081 | 0.0534 ± 0.0086 | 0.0544 ± 0.0087 | 0.0518 ± 0.0083 |
| CNC(C)=O [N-methylacetamide] | 0.0324 ± 0.0052 | 0.0447 ± 0.0072 | 0.0614 ± 0.0098 | 0.0775 ± 0.012 | 0.105 ± 0.017 | 0.129 ± 0.021 | 0.165 ± 0.026 | 0.192 ± 0.031 | 0.219 ± 0.035 | 0.247 ± 0.04 |  |  |  |  |  |  |  |  |  |  |
